In patent US7816406B2, “Quinolone analogs” (Cylene Pharmaceuticals, Inc., priority 2004, dated 2010):
Like-named read-outs stand apart in the source and are kept apart here.

Experiments:
c-Myc template DNA = test: Quadruplex binding assay (STOP / Taq polymerase arrest, capillary electrophoresis); type: biochemical; settings: concentration at which 50% of the DNA was arrested (arrested:full-length 1:1)
Protocol: Generally, a 5′-fluorescent-labeled (FAM) primer (P45, 15 nM) was mixed with template DNA (15 nM) in a Tris-HCL buffer (15 mM Tris, pH 7.5) containing 10 mM MgCl2, 0.1 mM EDTA and 0.1 mM mixed deoxynucleotide triphosphates (dNTP's). In one example, the FAM-P45 primer (5′ -6FAM-[…] CAATT-3′) (SEQ ID NO. 17) and the c-Myc template DNA (5′-[…] […] […]-3′) (SEQ ID NO. 18) were synthesized and HPLC purified by Applied Biosystems. The mixture was denatured at 95° C. for 5 minutes and, after cooling down to room temperature, was incubated at 37° C. for 15 minutes.
After cooling down to room temperature, 1 mM KCl2 and the test compound (various concentrations) were added and the mixture incubated for 15 minutes at room temperature. The primer extension was performed by adding 10 mM KCl and Taq DNA Polymerase (2.5 U/reaction, Promega) and incubating at 70° C. for 30 minutes. The reaction was stopped by adding 1 μl of the reaction mixture to 10 μl Hi-Di Formamide mixed and 0.25 μl LIZ120 size standard. Hi-Di Formamide and LIZ120 size standard were purchased from Applied Biosystems. The partially extended quadruplex arrest product was between 61 or 62 bases long and the full-length extended product was 99 bases long. The products were separated and analyzed using capillary electrophoresis. Capillary electrophoresis was performed using an ABI PRISM 3100-Avant Genetic Analyzer. The assay was performed using compounds described above and results are shown in Table 1. μM concentrations reported in Table 1 are concentrations at which 50% of the DNA was arrested in the assay (ie., the ratio of shorter partially extended DNA (arrested DNA) to full-length extended DNA is 1:1).
Stop Assays. Stop assays are high throughput, first-pass screens for detecting drugs that bind to and stabilize the target G-quadruplex. Generally, DNA template oligonucleotide is created, which contains the nucleotide sequence of the “target” quadruplex against which drug screening is desired. A fluorescently labeled primer DNA is then annealed to the 3′ end of the template DNA. A DNA polymerase such as Taq polymerase is then introduced to synthesize a complementary strand of DNA by extending from the fluorescently labeled primer. When the progress of the Taq polymerase is unhindered, it synthesizes a full-length copy of the template. […] If, however, the test drug selectively binds to and stabilizes the quadruplex, the progress of polymerase arrests only at the quadruplex, and a characteristic “Stop Product” is synthesized.
Compounds are initially screened at a single concentration, and “hits” are re-assayed over a range of doses to determine an IC50 value (i.e., the concentration of drug required to produce an arrest product/full-length product ratio of 1:1). These products are visualized by capillary electrophoresis.

MiaPaca = test: MTS cell proliferation assay, MiaPaca; type: cell-based; settings: Homo sapiens, MIA PaCa-2, M CELL MiaPaca, Table 1C
Protocol: (§1) MTS assays. Antiproliferative effects of anticancer drugs are tested by the CellTiter 96 AQueous assay (Promega, WI), which is a colorimetric assay for determining the number of viable cells. (See, e.g., Wang, L., et al., Methods Cell Sci (1996) 18:249-255). Generally, cells (2,000 to 5,000 cells/well) are seeded on 96 well flat bottom plates (Corning, NY) in 100 μl of culture medium without any anticancer drug on day 0, and the culture medium is exchanged for that contained anticancer drugs at various concentrations on day 1. After incubation for 3 days under normal growth conditions (on day 4), the monolayers are washed once in PBS, and the medium is switched to 100 μl of PBS in each of the 96 well plate. After mixing MTS and PMS at the ratio of 20:1, 20 μl of MTS/PMS solution is added to each of the 96 well plate and incubated for 4 hours in a humidified atmosphere of 5% CO2 at 37° C. The absorbance is read at 490 nm using FLUOstar Galaxy 96 well plate reader (BMG Labtechnologies, Germany).

HCT116 cells = test: HCT-116 colorectal cancer xenograft model, intravenous dosing; type: in vivo; settings: IV bolus, nu/nu mice
Protocol: 6 wk old female nu/nu mice were purchased from Taconic Farms, Germantown N.Y. They were injected with 5×10^6 HCT116 cells SQ in right flank. When tumors reached sufficient size for study, they were randomized into groups. • Vehicle: 242.9 mm^3 • Test compound: 251.0 mm^3
Animals dosed by bolus injection—IV through lateral tail vein for five consecutive days. Caliper measurements were taken on Day 1, 4, 6.
6 wk old female nu/nu mice were purchased from Simonsen Labs, Gilroy, Calif. They were injected with 5×10^6 HCT116 cells SQ in right flank. When tumors reached sufficient size for study, they were randomized into groups. • Vehicle: 101.9 mm^3 • Test compound: 152.8 mm^3
Animals dosed by bolus injection—IV through lateral tail vein for fourteen consecutive days. Caliper measurements were taken on Day 1, 3, 5, 7, 10, 12, 14, and 18.
6 wk old female nu/nu mice were purchased from Simonsen Labs, Gilroy, Calif. They were injected with 5×10^6 HCT116 cells SQ in right flank. When tumors reached sufficient size for study, they were randomized into groups. • Vehicle: 114.6 mm^3 • Test compound: 106.1 mm^3 • Test compound: 84.1 mm^3
Animals dosed by bolus injection—IV through lateral tail vein for fourteen consecutive days. Caliper measurements were taken on Day 1, 4, 6, 8, 12, and 15.
6 wk old female nu/nu mice were purchased from Taconic Farms, Germantown N.Y. They were injected with 5×10^6 HCT116 cells SQ in right flank. When tumors reached sufficient size for study, they were randomized into groups. • Vehicle: 242.9 mm^3 • Test compound: 252.1 mm^3
Animals dosed by bolus injection—IV through lateral tail vein for five consecutive days. Caliper measurements were taken on Day 1, 4, and 6.
6 wk old female nu/nu mice were purchased from Taconic Farms, Germantown N.Y. They were injected with 5×10^6 HCT116 cells SQ in right flank. When tumors reached sufficient size for study, they were randomized into groups. • Vehicle: 242.9 mm^3 • Test compound: 236.1 mm^3
6 wk old female nu/nu mice were purchased from Taconic Farms, Germantown N.Y. They were injected with 5×10^6 HCT116 cells SQ in right flank. When tumors reached sufficient size for study, they were randomized into groups. • Vehicle: 242.9 mm^3 • Test compound: 254.7 mm^3
6 wk old female nu/nu mice were purchased from Taconic Farms, Germantown N.Y. They were injected with 5×10^6 HCT116 cells SQ in right flank. When tumors reached sufficient size for study, they were randomized into groups.
Animals dosed by bolus injection—IV through lateral tail vein for nine consecutive days. Caliper measurements were taken on Day 1, 3, 5, 7, and 9.
Animals dosed by bolus injection—IV through lateral tail vein for seven consecutive days. Caliper measurements were taken on Day 1, 3, 5, and 7.

HCT-116 = test: MTS cell proliferation assay, HCT-116; type: cell-based
Protocol: as §1

[1] = 25 mg/kg, five consecutive days
[2] = Homo sapiens, HCT-116, HCT-116, Table 1A, read-out: HCT-116 MTs
[3] = 12.5 mg/kg, fourteen consecutive days
[4] = different dose levels, fourteen consecutive days
[5] = Homo sapiens, HCT-116, M CELL HCT-116, Table 1C, read-out: M DATA
[6] = 25 and 12.5 mg/kg, seven consecutive days

Compound	IC50 (c-Myc template DNA) [µM]	IC50 (HCT-116; [2]) [µM]	also measured
CC(C)N1CCN(c2cc3c(=O)c(C(=O)NCCC4CCCN4C)c4sc5ccccc5n4c3cc2Cl)CC1 (centres unmarked)	> 15		
CC(C)Nc1ncc2c(=O)c(C(=O)NCCN3CCCC3)c3sc4ccccc4n3c2n1 [drawing 330]			IC50 (MiaPaca): 0.11 µM
NC1CCN(c2nc3c(cc2F)c(=O)c(C(=O)NCCN2CCCC2)c2sc4ccccc4n23)C1 (centres unmarked)			activity in HCT116 xenograft (HCT116 cells; [1]): activity; adverse effects (HCT116 cells; [1]): no adverse effects observed
CN1CCCC1CCNC(=O)c1c(=O)c2cc(F)c(N3CCC(c4cnccn4)C3)cc2n2c3ccccc3n(C)c12 (centres unmarked)	10.5	0.7	
CN1CCCC1CCNC(=O)c1c(=O)c2ccc(N3CCNCC3)nc2n2c1sc1ccccc12 (centres unmarked) [drawing 358]			IC50 (MiaPaca): 0.01 µM
CN1CCCC1CCNC(=O)c1c(=O)c2cc(F)c(N3CCC(c4cnccn4)C3)cc2n2c1sc1ccccc12 (centres unmarked)	1.3	3.4	
O=C(NCCN1CCCC1)c1c(=O)c2cnc(N3CCCC3)nc2n2c1sc1ccccc12 [drawing 654]			activity in HCT116 xenograft (HCT116 cells; [1]): activity; adverse effects (HCT116 cells; [1]): no adverse effects observed
O=C(NCCN1CCCC1)c1c(=O)c2cnc(N3CCCC3)nc2n2c1sc1ccc(Cl)cc12 [drawing 212]			IC50 (HCT-116; M CELL HCT-116, Table 1C, read-out: M DATA): 0.21 µM
CC(=O)N1CCN(c2nc3c(cc2F)c(=O)c(C(=O)NCCN2CCCC2)c2n(C)c4ccccc4n32)CC1 [drawing 655]			adverse effects (HCT116 cells; 25 and 12.5 mg/kg, nine consecutive days): no adverse effects observed; activity in HCT116 xenograft (HCT116 cells; high dose (25 mg/kg), nine consecutive days): limited activity; activity in HCT116 xenograft (HCT116 cells; mid dose (12.5 mg/kg), nine consecutive days): no activity
CN1CCCC1CCNC(=O)c1c(=O)c2cc(SCCc3cnccn3)ccc2n2c1sc1ccccc12 (centres unmarked)	10	6.1	
CC(C)N1CCN(c2cc3c(cc2F)c(=O)c(C(=O)NCCC2CCCN2C)c2n(C)c4ccccc4n32)CC1 (centres unmarked)	15	0.3	
CN1CCCC1CCNC(=O)c1c(=O)c2cc(F)c(SCCc3cnccn3)cc2n2c1sc1cc(Cl)ccc12 (centres unmarked)	1.7	3.57	
CC(C)N1CCN(c2cc3c(cc2F)c(=O)c(C(=O)NCCN2CCCC2)c2n(C)c4ccccc4n32)CC1	> 15		
CC(=O)N1CCN(c2ccc3c(=O)c(C(=O)NCCN4CCCC4)c4n(C)c5ccccc5n4c3n2)CC1			activity in HCT116 xenograft (HCT116 cells; [3]): activity; adverse effects (HCT116 cells; [3]): no adverse effects observed; activity in HCT116 xenograft (HCT116 cells; [4]): dose dependent activity; adverse effects (HCT116 cells; [4]): no adverse effects observed
CN(C)CCN(C)c1ccc2c(=O)c(C(=O)NCCC3CCCN3C)c3sc4ccccc4n3c2n1 (centres unmarked) [drawing 385]			IC50 (HCT-116; [5]): 0.02 µM
Cn1c2ccccc2n2c3cc(F)c(F)cc3c(=O)c(C(=O)NCCN3CCCC3)c12	15	0.3	

Compound	IC50 (c-Myc template DNA) [µM]	IC50 (HCT-116; [2]) [µM]	also measured
Nc1ccccc1Sc1c(F)cc2c(=O)c(C(=O)NCCN3CCCC3)c3sc4ccccc4n3c2c1F	15	2.4	
CC(C)N1CCN(c2nc3c(cc2F)c(=O)c(C(=O)NCCC2CCCN2C)c2sc4ccc(Cl)cc4n23)CC1 (centres unmarked)			activity in HCT116 xenograft (HCT116 cells; [1]): activity; adverse effects (HCT116 cells; [1]): no adverse effects observed
O=C(NCCN1CCCC1)c1c(=O)c2cc(F)c(N3CCC(c4cnccn4)C3)c(F)c2n2c1sc1ccccc12 (centres unmarked)	11.6	3.5	
CN1CCCC1CCNC(=O)c1c(=O)c2cc(F)c(SCCc3cnccn3)cc2n2c3ccccc3n(C)c12 (centres unmarked)	15	2.3	
O=C(NCCN1CCCC1)c1c(=O)c2cc(F)c(SCCc3cnccn3)cc2n2c1sc1ccccc12 [drawing 15]	5.8	0.57	
O=C(NCCN1CCCC1)c1c(=O)c2c(N3CCCC3)ccnc2n2c1sc1ccccc12 [drawing 145]			IC50 (MiaPaca): 2.3 µM
CC(=O)NC1CCN(c2ccnc3c2c(=O)c(C(=O)NCCN2CCCC2)c2sc4ccccc4n23)C1 (centres unmarked) [drawing 147]			IC50 (MiaPaca): 0.7 µM
CN1CCCC1CCNC(=O)c1c(=O)c2ccc(N3CCC(c4cnccn4)C3)nc2n2c1sc1ccc(Cl)cc12 (centres unmarked) [drawing 656]			activity in HCT116 xenograft (HCT116 cells; [6]): excellent activity with minimal dose dependency; adverse effects (HCT116 cells; [6]): No adverse effects were observed
Cn1c2ccccc2n2c3cc(N4CCC(c5cnccn5)C4)c(F)cc3c(=O)c(C(=O)NCCN3CCCC3)c12 (centres unmarked)	8.2	0.1	
CC(C)N1CCN(c2cc3c(cc2F)c(=O)c(C(=O)NCCN2CCCC2)c2sc4ccccc4n23)CC1	9	0.3	
COc1ccc2c(c1)sc1c(C(=O)NCCC3CCCN3C)c(=O)c3cc(F)c(SCCc4cnccn4)cc3n12 (centres unmarked)	9.3	5.7	
Cn1c2ccccc2n2c3cc(SCCc4cnccn4)c(F)cc3c(=O)c(C(=O)NCCN3CCCC3)c12	15	0.3	
CN1CCCC1CCNC(=O)c1c(=O)c2cc(F)c(SCCc3cnccn3)cc2n2c1sc1ccccc12 (centres unmarked) [drawing 14]	7.2	1.1	
O=C(NCCN1CCCC1)c1c(=O)c2ccc(NCCN3CCOCC3)nc2n2c1sc1ccccc12 [drawing 307]			IC50 (HCT-116; [5]): 0.02 µM
CC(=O)N1CCN(c2ncc3c(=O)c(C(=O)NCCN4CCCC4)c4sc5ccccc5n4c3n2)CC1 [drawing 653]			activity in HCT116 xenograft (HCT116 cells; [1]): activity; adverse effects (HCT116 cells; [1]): no adverse effects observed
